From US11365185B2, “Lysophosphatidic acid receptor 1 (LPAR1) inhibitor compounds” (Eli Lilly and Company, priority 2017, dated 2022)
Marks after values point to notes of the source that are not given here.

Experiments:
Male C57BL/6J mice = assay: Mouse Intravenous LPA-Induced Histamine and Eicosanoids Release; assay type: in vivo; conditions: 10 mg/kg orally 2 hours before intravenous LPA; plasma
Method: Mouse Intravenous LPA-Induced Histamine and Eicosanoids Release
A mouse intravenous LPA-induced histamine and eicosanoids release model is utilized to determine the in vivo potency of the compounds of the present invention. Male C57BL/6J mice weighing 20-25 grams are given free access to standard mouse chow and water. LPA is dissolved in 0.1% fatty acid-free bovine serum albumin to generate solution at 2 mg/mL. Test compounds are formulated in 0.5% methyl cellulose plus 0.25% Tween 80 to generate required concentrations one day before the experiment and stored in a refrigerator until use. Animals are dosed orally with test compounds at 10 ml/kg 2 hours before the intravenous LPA dosing (300 ug per mouse) with 30 gauge needles through tail vain. Two hours after LPA dosing the animals are euthanized by CO2 suffocate. Blood will be collected by cardiac puncture. Blood samples are kept on ice for more than 5 minutes and centrifuged at 4000 rpm for 10 minutes at 4° C. to generate supernatant plasma. The plasma histamine, methylimidazol acetic acid and eicosanoids levels are measured by LC/MS.

[1] = Rodent Pharmacokinetics - Rat PK; assay type: in vivo, male Sprague-Dawley rats; conditions: male, Sprague-Dawley, plasma
Method: (§1) The pharmacokinetics of compounds are determined in male Sprague-Dawley rats or C57 mice. The rats are administered a single 1 mg/kg intravenous (IV) and 10 mg/kg oral gavage (PO) dose. The vehicles are 20% Captisol w/v in 25 mM NaPO4 buffer, pH8 and 1% hydroxyethylcellulose/0.25% polysorbate 80 and 0.05% antifoam 1510-US in distilled water for the intravenous and oral dose, respectively. Blood samples are collected at predose (PO only), 0.08 (IV only), 0.25, 0.5, 1, 2, 4, 8, 12 and 24 h after initiation of compound administration. Blood samples are centrifuged to obtain plasma. The plasma samples are analyzed by LC-MS/MS to determine compound concentrations.

LPAR1 [2] = biological target: T1, LPAR1 (Homo sapiens (Human), UniProt Q92633); assay: LPAR1 Calcium Flux Assay; assay type: cell-based; conditions: U937 cells overexpressing human LPAR1, LPA-stimulated calcium, FLIPR
Method: LPAR1 Calcium Flux Assays
(§2) A cDNA encoding the human LPAR1 receptor is synthesized and cloned into pDNA3 expression plasmid. The plasmid is transfected in U937 cells using Lipofectamine 2000 (Invitrogen Corp., USA). Clones stably expressing human LPAR1 are selected using puromycin and identified as cells that show Ca-influx in response to LPA.
U937 cells overexpressing human LPAR1 are seeded at 100,000 cells per well in a 96-well fibronectin (10 ug/ml) coated plate in 60 μl of assay buffer (HBSS containing 20 mM HEPES and 0.2% BSA) and then incubated for 60 minutes. Then 50 μl of a calcium indicator dye (Fluo-4 NW, Molecular Probes) are added to each well and incubation continued for 30 minutes at 37° C. and then 30 minutes at room temperature. 50 μl of test compounds in 4% DMSO are added to the cells and incubation continued at room temperature for 40 minutes. Cells are the stimulated by the addition of 50 μl of 128 nM LPA and intracellular calcium is measured using the FLIPR TETRA (Molecular Devices). IC50 values are determined using “Genedata Screener” analysis tool.
Target sequence in this assay (Q92633 whole entry): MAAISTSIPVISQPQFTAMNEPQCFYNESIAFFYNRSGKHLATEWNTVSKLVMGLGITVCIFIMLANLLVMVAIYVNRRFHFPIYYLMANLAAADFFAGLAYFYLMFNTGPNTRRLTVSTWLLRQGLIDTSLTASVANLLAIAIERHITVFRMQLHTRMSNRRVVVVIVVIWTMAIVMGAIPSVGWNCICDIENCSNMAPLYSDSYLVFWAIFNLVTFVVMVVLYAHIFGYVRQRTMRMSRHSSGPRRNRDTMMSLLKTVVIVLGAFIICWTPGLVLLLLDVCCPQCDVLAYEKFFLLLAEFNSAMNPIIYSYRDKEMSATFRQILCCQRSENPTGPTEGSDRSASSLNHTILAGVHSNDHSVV

human LPAR3 = human LPAR3 (Homo sapiens (Human), UniProt Q9UBY5); assay: LPAR3 Calcium Flux Assay; assay type: cell-based; conditions: U2OS cells overexpressing human LPAR3, LPA-stimulated calcium, FLIPR
Method: LPAR3 Calcium Flux Assays
as §2, with “LPAR3” for “LPAR1”, “U2OS” for “U937”, “neomycin” for “puromycin”
U2OS cells overexpressing human LPAR3 are seeded at 20,000-40,000 cells per well in a 96-well poly-D-lysine coated plate one day before the assay. Prior to the assay, the cells are washed once with assay buffer (HBSS containing 20 mM HEPES and 0.2% BSA) and then incubated in 50 μl of assay buffer for 60 minutes. Then 50 μl of a calcium indicator dye (Fluo-4 NW, Molecular Probes) are added to each well and incubation is continued for 30 minutes at 37° C. and then 30 minutes at room temperature. 50 μl of test compounds in 4% DMSO are added to the cells and incubation continued at room temperature for 40 minutes. Cells are stimulated by the addition of 50 μl of 128 nM LPA and intracellular calcium is measured using the FLIPR TETRA (Molecular Devices). IC50 values are determined using “Genedata Screener” analysis tool.

Male C57B1/6 mice = assay: Diet-Induced Liver Inflammation and Fibrosis; assay type: in vivo; conditions: for Peri-sinusoidal Fibrosis Score: vehicle 1.37; for Inflammation Score: vehicle 2.7
Method: Diet-Induced Liver Inflammation and Fibrosis
Male C57B1/6 mice (7-8 weeks old) are given free access to food and water. Mice are fed with high fat, high sucrose and high cholesterol food for 196 days. Then animals will be administrated orally with vehicle or test compounds once daily for 77 days at a volume of 5 ml/kg. Body weight and food intake will be measured twice a week, after two weeks, BW and FI will be measured once a week. At the end of study, animals will be euthanized by CO2 suffocation. Liver samples of the animals are collected and fixed in 10% NBF. Liver samples are prepared after 20 to 24 hours of fixation in 10% NBF and prepared into FFPE blocks. Slide sections of FFPE blocks are processed with H&E and Masson's Trichrome staining. Histopathology interpretation and results will be provided by qualified pathologists. The data are plotted using Graphpad prism and statistical differences between groups determined.

[3] = tested on: Human hepatic stellate cell line LX-2; assay: Calcium Influx of Human Hepatic Stellate Cells (LX-2); assay type: cell-based; conditions: LX-2 cells, LPA-stimulated calcium influx
Method: Calcium Influx of Human Hepatic Stellate Cells (LX-2)
Human hepatic stellate cell line LX-2 is purchased from EMD Millpore. LX-2 cells are seeded at 20,000-40,000 cells per well in a 96-well poly-D-lysine coated plate one day before the assay. Prior to the assay, the cells are washed once with assay buffer (HBSS containing 20 mM HEPES and 0.2% BSA) and then incubated in 50 μl of assay buffer for 60 minutes. Then 50 μl of a calcium indicator dye (Fluo-4 NW, Molecular Probes) are added to each well and incubation is continued for 30 minutes at 37° C. and then 30 minutes at room temperature. 50 μl of test compounds in 4% DMSO are added to the cells and incubation is continued at room temperature for 40 minutes. Cells are stimulated by the addition of 50 μl of 128 nM LPA and intracellular calcium is measured using the FLIPR TETRA (Molecular Devices). IC50 values are determined using “Genedata Screener” analysis tool.

LPAR1 [4] = biological target: T1, LPAR1; assay: LPAR1 Membrane Binding Assay; conditions: membrane containing LPAR1, radio labeled ligand, SPA
Method: LPAR1 Membrane Binding Assay
The ability of a compound to inhibit binding of a ligand (1-(4′-(4-(((benzyloxy)carbonyl)amino)-3-methylisoxazol-5-yl)-[1,1′-biphenyl]-4-yl)cyclopropane-1-carboxylic acid) to LPAR1 is assessed via a membrane binding assay. Membrane containing LPAR1 was purchased from Cerep (Cat. No. 290312RB). Prior to the assay, membrane is thawed and homogenized for 15 seconds. 50 μl of test compounds and 50 μl of radio labeled ligand are added to the 96-well plates and then 50 of μl membrane (50-400 ug/ml) are added. Next, 50 μl of SPA PVT WGA beads are added (1-5 mg/ml) and the plates are sealed and incubated at room temperate for 5 minutes. Radio activity is measured by Beta Counter and IC50 values are determined using “Genedata Screener” analysis tool.
Target sequence in this assay (Q92633 whole entry, species assumed): as the sequence (Q92633 whole entry) above

[5] = Rodent Pharmacokinetics - Mouse PK; assay type: in vivo, C57 mice; conditions: C57, plasma
Method: as §1

[6] = 10 mg/kg orally once daily for 77 days
[7] = 30 mg/kg orally once daily for 77 days

Chain of human LPAR3 (Q9UBY5 whole entry): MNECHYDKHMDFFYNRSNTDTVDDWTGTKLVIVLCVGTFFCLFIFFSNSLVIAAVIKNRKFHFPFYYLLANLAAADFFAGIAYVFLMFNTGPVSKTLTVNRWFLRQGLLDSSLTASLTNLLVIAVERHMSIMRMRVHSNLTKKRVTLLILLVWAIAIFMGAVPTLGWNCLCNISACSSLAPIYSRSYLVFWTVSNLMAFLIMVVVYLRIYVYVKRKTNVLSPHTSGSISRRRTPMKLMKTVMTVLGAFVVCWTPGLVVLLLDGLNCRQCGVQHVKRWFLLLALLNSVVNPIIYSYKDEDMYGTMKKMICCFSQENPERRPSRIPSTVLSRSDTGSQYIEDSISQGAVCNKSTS

## CC(C)c1cncc(Nc2c(-c3ccc(-c4ccc(C5(C(=O)O)CC5)cc4)cn3)cnn2C)n1 [Example 27, 1-[4-[6-[5-[(6-isopropylpyrazin-2-yl)amino]-1-methyl-pyrazol-4-yl]-3-pyridyl]phenyl]cyclopropanecarboxylic Acid]
Male C57BL/6J mice
  % of inhibition, histamine: 89.5 ± 1.6%
  % of inhibition, methylimidazoleacetic acid: 100.8 ± 3.4%
[1]; 10 mg/kg, PO
  AUC: 80.1 µM·h
[1]; intravenous, 1 mg/kg
  clearance: 4.23 mL/min/kg
[1]; intravenous, 1 mg/kg, read-out: Vdss
  Vd: 0.799 L/kg
[1]; oral, 10 mg/kg
  bioavailability: 93.6%
LPAR1 [2]
  IC50: 0.0206 µM
Human LPAR3
  IC50: 1.98 µM
Male C57B1/6 mice; [6]
  Peri-sinusoidal Fibrosis Score: 1.30
  Inflammation Score: 2.1*
Male C57B1/6 mice; [7]
  Peri-sinusoidal Fibrosis Score: 1.07^$
  Inflammation Score: 2.3^#
[3]
  IC50: 0.00888 µM
LPAR1 [4]
  Ki: 0.0153 µM
[5]; 10 mg/kg, PO
  AUC: 38.4 µM·h
[5]; intravenous
  clearance: 3.5 mL/min/kg
[5]; intravenous, read-out: Vdss
  Vd: 0.953 L/kg
[5]; oral, 10 mg/kg
  bioavailability: 40.8%
